# Source: patent US10294202B2, “Pyrrolidinones as herbicides” (FMC Corporation, priority 2013, dated 2019)
# Assays:
# lambsquarters = assay: Test C pre-/postemergence herbicide test; type: in vivo, Chenopodium album
# Method in brief: (§1)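 Compound solutions contained surfactant in a non-phytotoxic solvent. These were sprayed onto pots of loam/sand sown with seeds, and onto young plants (2 to 18 cm, 1- to 4-leaf) in sphagnum peat–vermiculite mix. Visual injury scores (0 none, 100 complete control) were recorded after 13 to 15 days.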
# corn = assay: Test C pre-/postemergence herbicide test; type: in vivo, Zea mays
# Method in brief: as §1
# galium = assay: Test C pre-/postemergence herbicide test; type: in vivo, Galium aparine; conditions: Preemergence
# Method in brief: as §1
# barnyardgrass [1] = assay: Test B flooded paddy test; type: in vivo, Echinochloa crus-galli; conditions: Flood, scale of 0 to 100 where 0 is no effect and 100 is complete control
# Method in brief: (§2)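 Visual ratings from 0, meaning no effect, up to 100, meaning complete control, were made by comparison with untreated controls 13 to 15 days after treatment. Test compounds went straight into floodwater standing 3 cm over the soil of pots holding 2-leaf seedlings.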
# pigweed = assay: Test C pre-/postemergence herbicide test; type: in vivo, Amaranthus retroflexus
# Method in brief: as §1
# rice = assay: Test B flooded paddy test; type: in vivo, Oryza sativa; conditions: Flood, scale of 0 to 100 where 0 is no effect and 100 is complete control
# Method in brief: as §2
# crabgrass, large = assay: Test C pre-/postemergence herbicide test; type: in vivo, Digitaria sanguinalis
# Method in brief: as §1
# barnyardgrass [2] = assay: Test A pre-/postemergence herbicide test; type: in vivo, Echinochloa crus-galli
# Method in brief: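 Formulated compound (non-phytotoxic solvent, surfactant) sprayed pre- onto soil of seeded loam/sand pots or post- onto seedlings at 1–2 leaves; ~10 d greenhouse; 0–100 visual control rating versus untreated.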
# foxtail, giant = assay: Test C pre-/postemergence herbicide test; type: in vivo, Setaria faberii
# Method in brief: as §1
# blackgrass = assay: Test C pre-/postemergence herbicide test; type: in vivo, Alopecurus myosuroides
# Method in brief: as §1
# velvetleaf = assay: Test C pre-/postemergence herbicide test; type: in vivo, Abutilon theophrasti
# Method in brief: as §1
# [3] = Preemergence, 31 g ai/ha, scale 0 to 100, 0 is no effect and 100 is complete control
# [4] = Preemergence, 62 g ai/ha, scale 0 to 100 (0 no effect, 100 complete control)
# [5] = Preemergence, 125 g ai/ha, scale 0 to 100
# [6] = Postemergence, 500 g ai/ha, 0 to 100 scale (0 no effect, 100 complete control)
# [7] = Postemergence, 31 g ai/ha, scale 0 (no effect) to 100 (complete control)
# [8] = Postemergence, 62 g ai/ha, scale 0 to 100 (0 no effect, 100 complete control)
# [9] = Postemergence, 125 g ai/ha, scale 0 to 100 (0 no effect, 100 complete control)
# [10] = Preemergence, 125 g ai/ha, scale 0 to 100 (0 no effect, 100 complete control)
# [11] = Preemergence, 62 g ai/ha, scale 0 to 100
# [12] = Preemergence, 31 g ai/ha, scale 0 to 100 (0 no effect, 100 complete control)
compound,measurement,setting,value
CC(C)c1cccc(C2CNC(=O)C2C(=O)Nc2cccc(F)c2F)c1 (stereo not drawn) [Compound 319],Lambsquarters plant response rating,lambsquarters; [3],60
same,Lambsquarters plant response rating,lambsquarters; [4],65
same,"Plant response rating, Lambsquarters",lambsquarters; [5],65
same,"Plant response rating (scale of 0 to 100), Lambsquarters","lambsquarters; Preemergence, 250 g ai/ha",75
same,Corn plant response rating,corn; [3],0
same,Corn plant response rating,corn; [4],30
same,"Plant response rating, Corn",corn; [5],60
same,"Plant response rating (scale of 0 to 100), Corn","corn; Preemergence, 250 g ai/ha",65
same,Galium plant response rating,"galium; 31 g ai/ha, scale 0 to 100, 0 is no effect and 100 is complete control",95
same,Galium plant response rating,"galium; 62 g ai/ha, scale 0 to 100 (0 no effect, 100 complete control)",70
same,"Plant response rating, Galium","galium; 125 g ai/ha, scale 0 to 100",80
same,"Plant response rating (scale of 0 to 100), Galium",galium; 250 g ai/ha,85
same,"Plant response rating, Barnyardgrass",barnyardgrass [1]; 500 g ai/ha,70
same,Pigweed plant response rating,pigweed; [3],30
same,Pigweed plant response rating,pigweed; [4],25
same,"Plant response rating, Pigweed",pigweed; [5],40
same,"Plant response rating, Rice",rice; 500 g ai/ha,0
same,"Crabgrass, Large plant response rating","crabgrass, large; [3]",95
same,"Crabgrass, Large plant response rating","crabgrass, large; [4]",98
same,"Plant response rating, Crabgrass, Large","crabgrass, large; [5]",95
same,"Plant response rating (scale of 0 to 100), Crabgrass, Large","crabgrass, large; Preemergence, 250 g ai/ha",98
same,"Plant response rating, Barnyardgrass","barnyardgrass [2]; Postemergence, 125 g ai/ha, visual rating on 0 to 100 scale (0 no effect, 100 complete control), approx. 10 days",90
same,"Plant response rating, Barnyardgrass",barnyardgrass [2]; [6],90
same,"Plant response rating, Barnyardgrass","barnyardgrass [2]; Preemergence, 125 g ai/ha, 0 to 100 scale where 0 is no effect and 100 is complete control",90
same,Barnyardgrass plant response rating,"barnyardgrass [2]; Preemergence, 500 g ai/ha, visual rating on 0 to 100 scale (0 no effect, 100 complete control)",90
same,"Foxtail, Giant plant response rating","foxtail, giant; [3]",70
same,"Foxtail, Giant plant response rating","foxtail, giant; [4]",85
same,"Plant response rating, Foxtail, Giant","foxtail, giant; [5]",95
same,"Plant response rating (scale of 0 to 100), Foxtail, Giant","foxtail, giant; Preemergence, 250 g ai/ha",95
same,Blackgrass plant response rating,blackgrass; [3],40
same,Blackgrass plant response rating,blackgrass; [4],0
same,"Plant response rating, Blackgrass",blackgrass; [5],30
same,"Plant response rating (scale of 0 to 100), Blackgrass","blackgrass; Preemergence, 250 g ai/ha",80
same,Velvetleaf plant response rating,velvetleaf; [4],20
same,"Plant response rating, Velvetleaf",velvetleaf; [5],45
O=C1NCC(c2ccc(F)c(Cl)c2)C1C(=O)Nc1ccccc1F (stereo not drawn) [Compound 60],"Plant response rating, Lambsquarters",lambsquarters; [7],5
same,"Plant response rating, Lambsquarters",lambsquarters; [8],20
same,"Plant response rating, Lambsquarters",lambsquarters; [9],20
same,"Plant response rating, Lambsquarters",lambsquarters; [10],10
same,"Plant response rating, Corn",corn; [7],0
same,"Plant response rating, Corn",corn; [8],0
same,"Plant response rating, Corn",corn; [9],0
same,"Plant response rating, Corn",corn; [11],10
same,"Plant response rating, Corn",corn; [10],20
same,Corn plant response rating,corn; [12],0
same,"Plant response rating, Galium","galium; 62 g ai/ha, scale 0 to 100",0
same,"Plant response rating, Galium","galium; 125 g ai/ha, scale 0 to 100 (0 no effect, 100 complete control)",5
same,Galium plant response rating,"galium; 31 g ai/ha, scale 0 to 100 (0 no effect, 100 complete control)",0
same,"Plant response rating, Barnyardgrass",barnyardgrass [1]; 250 g ai/ha,30
same,"Plant response rating, Pigweed",pigweed; [8],20
same,"Plant response rating, Pigweed",pigweed; [9],20
same,"Plant response rating, Pigweed",pigweed; [11],10
same,"Plant response rating, Pigweed",pigweed; [10],20
same,"Plant response rating, Rice",rice; 250 g ai/ha,0
same,"Plant response rating, Crabgrass, Large","crabgrass, large; [7]",20
same,"Plant response rating, Crabgrass, Large","crabgrass, large; [8]",50
same,"Plant response rating, Crabgrass, Large","crabgrass, large; [9]",75
same,"Plant response rating, Crabgrass, Large","crabgrass, large; [11]",95
same,"Plant response rating, Crabgrass, Large","crabgrass, large; [10]",95
same,"Crabgrass, Large plant response rating","crabgrass, large; [12]",85
same,"Plant response rating, Barnyardgrass","barnyardgrass [2]; Postemergence, 125 g ai/ha, 0 to 100 scale, 0 no effect, 100 complete control",80
same,"Plant response rating, Barnyardgrass",barnyardgrass [2]; [6],90
same,Barnyardgrass plant response rating,"barnyardgrass [2]; Preemergence, 125 g ai/ha, visual rating on 0 to 100 scale (0 no effect, 100 complete control)",80
same,"Plant response rating, Barnyardgrass","barnyardgrass [2]; preemergence, 500 g ai/ha, 0 to 100 scale (0 no effect, 100 complete control)",90
same,"Plant response rating, Foxtail, Giant","foxtail, giant; [7]",0
same,"Plant response rating, Foxtail, Giant","foxtail, giant; [8]",15
same,"Plant response rating, Foxtail, Giant","foxtail, giant; [9]",30
same,"Plant response rating, Foxtail, Giant","foxtail, giant; [11]",85
same,"Plant response rating, Foxtail, Giant","foxtail, giant; [10]",90
same,"Foxtail, Giant plant response rating","foxtail, giant; [12]",70
same,"Plant response rating, Blackgrass",blackgrass; [7],0
same,"Plant response rating, Blackgrass",blackgrass; [8],0
same,"Plant response rating, Blackgrass",blackgrass; [9],0
same,"Plant response rating, Blackgrass",blackgrass; [11],10
same,"Plant response rating, Blackgrass",blackgrass; [10],40
same,Blackgrass plant response rating,blackgrass; [12],0
same,"Plant response rating, Velvetleaf",velvetleaf; [7],0
same,"Plant response rating, Velvetleaf",velvetleaf; [8],0
same,"Plant response rating, Velvetleaf",velvetleaf; [9],5
same,"Plant response rating, Velvetleaf",velvetleaf; [11],0
same,"Plant response rating, Velvetleaf",velvetleaf; [10],0
